Experiments:
[1] = tested on: Sprague-Dawley rats; experiment: Renal ischemia-reperfusion injury; format: in vivo; parameters: RVR (renal vascular resistance): unit not given here; conditions: I/R + EX-2 (50 or 500 μg/kg iv before 1 hr clamping), after 60 min reperfusion
Procedure: Sprague-Dawley rats (250-300 g) were anesthetized with Inactin® (120 mg/kg). After deep anesthesia was assured, the rats were cannulated in the trachea with polyethylene (PE) tubing (PE 240), jugular vein, femoral artery, bladder (PE 50 for previous 3 cannulations), and left ureter (stretched PE 50). Once cannulation was completed, a 2 cm flank incision above the left kidney was performed and the renal pelvis and vascular bundle were exposed. The tissue surrounding the left renal artery was gently dissected away from the artery. The exposed renal artery was clamped for 1 hr using a small vascular cross-over clamp.
Just prior to clamping, EX-2 (50 or 500 μg/kg), ketorolac (KETO, 1 mg/kg), or vehicle was administered intravenously (iv) After 1 hr of clamping (ischemia), the clamp was gently removed with care taken to avoid damaging either the renal artery or nerves. An infusion of ^3 H-Inulin (NEN/Dupont; Wilmington, Del.), (0.6 μCi/ml in phosphate buffered saline (PBS)) (2 ml/hr) was initiated at a constant rate of […]. After 60 min of reperfusion, glomerular filtration rate (GFR), renal plasma flow (RPF) and renal vascular resistance (RVR) were assessed in two 30 min collection periods. The kidney was then removed for analysis. Sham operated and clamped rats served as controls for the above group. Contralateral renal function was utilized to determine the stability of the rat's renal function during the measured period.

[2] = tested on: inducible nitric oxide synthase (INOS); experiment: Inducible nitric oxide synthase induction in rat aorta smooth muscle cells (cGMP RIA); format: cell-based; conditions: RASMC induced with LPS, IL-1β or TNF-α; EX-2 0.1 or 1 μM
Procedure: Rat aorta smooth muscle cells (RASMC) were isolated from male rats (325-350 g) using the previously published procedures of Gelsterfer et al., Circ. Res. 62:749-756 (1988), which is incorporated herein by reference. Cells were positively identified as smooth muscle cells by indirect immunofluorescent staining for anti-α-actin, using a mouse anti-α-actin antibody and anti-mouse IgG FITC conjugate. Cells were grown in T-75 tissue culture flasks (Corning Delbelco's Glass, Inc.; Corning, N.Y.) in 50% F12 and 50% Delbelco's Modified Eagle Medium (DMEM) supplemented with 10% bovine serum, 0.2 g/l L-glutamine, penicillin (100 U/ml) and streptomycin (0.1 mg/ml).
Cells between passages 1-5 were pretreated with one of the following: vehicle, LPS (1 μg/ml), IL-1β (10 U/ml), or TNF-α (100 U/ml) for 6 hr. […] Accumulation of cGMP was determined following exposure to 0.3 mM 3-isobutyl-1-methyl xanthine (IBMX) in the presence or absence of 1 mM L-arginine. […] The HCl extract was analyzed for cGMP by RIA and the NaOH-solubilized cell remnants were used for protein determination.
Male Sprague-Dawley rats were anesthetized with 55 mg/kg pentobarbital IP. […] RASMC were incubated with plasma from control or EX-2-treated animals and the ability of plasma components to inhibit the induction of INOS by LPS or IL-1β was determined as above. […]

[3] = tested on: adult female Balb/c mice; experiment: LPS-induced lethality (IP dosing); format: in vivo; conditions: 11 × 300 μg/mouse IP (3.3 mg), every 4 hr; 0.6 mg LPS; vs control mice
Procedure: These experiments were performed based on information reported by Rivier et al., Endocrinology 125:2800-2805 (1989), which is incorporated herein by reference. Adult female Balb/c mice were provided food and water ad libitum. Mice were injected IP every four hr for 40 hr with 30 to 300 μg EX-2, EX-3 or EX-4 in 0.2 ml saline (treated group) or with 0.2 ml saline, alone (control group) (10 mice per group). Immediately following the first injection, 0.6 mg LPS endotoxin in 0.2 ml saline was administered to each mouse. Following LPS injection, EX-2 or saline was administered to the treated mice or the control mice, respectively, every 4 hr for 36 hr.

[4] = tested on: IL-6; experiment: Reduction of LPS-induced interleukin-6 levels in mice; format: in vivo; conditions: 300 μg/mouse; LPS treated mice; vs untreated control mice
Procedure: Balb/c mice were grouped and treated as described in Example III, above. Blood samples were obtained from the orbital sinus at various times up to six hr and serum was collected and diluted as described above. A 100 μl aliquot was assayed for IL-6 levels using an IL-6-specific ELISA by a modification of the method of Starnes et al., J. Immunol. 145:4185-4194 (1990), which is incorporated herein by reference.
The mean (±SEM) IL-6 level in six mice from each group was determined and the percent reduction in IL-6 was calculated.

For “Ac-Nle-Gln-His-(D)Phe-Arg-(D)Trp-Gly-NH2 [EX-2]”, the “GFR (glomerular filtration rate)” value ([1]; I/R + PBS 0.2 ± 0.1, Sham 1.0 ± 0.1) was 0.5 ± 0.1, the “RPF (renal plasma flow)” value ([1]; I/R + PBS 0.8 ± 0.2, Sham 4.2 ± 0.4) was 2.3 ± 0.3 and the “RVR (renal vascular resistance)” value ([1]; I/R + PBS 6.6 ± 2.1, Sham 1.0 ± 0.1) was 1.8 ± 0.2. For the same substance, the “INOS: cGMP (pmol/100 mg/15 min), % Reduction of induced increase” value [2] was 60%, the “Inhibition of LPS-induced Lethality (increase in survival)” value [3] was 83% and the “Reduction in IL-6 levels” value [4] was 60%.

— patent publication US5760001A, “Cytokine restraining agents and methods of use in pathologies and conditions associated with altered cytokine levels” (Trega Biosciences, Inc., priority 1995, dated 1998)
